The EC50 is the midpoint of the concentration-response curve.

Structures can show the parent of a compound that is named as a salt.

One assay concerns HT-1080 (fibrosarcoma) cells. The assay can be described thus: Primary screening by ferroptosis assay (Erastin-induced, cell viability, CellTiter-Glo). It counts as cell-based. The conditions noted are these: HT-1080 cells, 30 hours, % remaining activity, read-out: EC50, Inhibition for Ferroptosis in HT-1080 Cell. The procedure:
Cell Lines and Media: HT-1080 (fibrosarcoma) cells were obtained from American Type Culture Collection. Cells were grown in EMEM media, 10% Heat-Inactivated FBS, and penicillin-streptomycin mix (Invitrogen). Cells were maintained at 37° C. and 5% CO2 in a tissue culture incubator.
Cell Viability Assay: Seed 10,000 cell/well of HT-1080 cells with 195 μL growth media in black and clear bottom 96-well plates (Cat #Corning 3904) and allow cells to adhere overnight. The next day, dilute test compound by 2-fold dilution into 12 points with medium containing 400 μM Erastin. Transfer 5 μL of compounds solution into growth medium in triplicated wells. 30 hours later, add Cell Titer-Glo® Luminescent cell viability assay reagent (Cat #, Promega G8081) to measure HT-1080 cell viability according to the manufacture protocol. Briefly, aspirate 100 μL medium, and add 50 μL CellTiter-Glo® Luminescent reagent to each well and incubated for 30 minutes at room temperature to stabilize the Luminescent signal. Seal the plates and centrifuged for 1 minute at 1,000 rpm to remove bubbles. Shake the plates for 1 minute on an orbital shaker. Read the plate to detect Luminescent signal with EnSpire Multimode Plate Reader (PerkinElmer). The remaining activity % is used to evaluate Erastin induced ferroptosis in HT-1080 cells and expressed as the following formula: % Remaining Activity−100×[(Sample−Backgroundavg)/(Vehicle−Background avg)]
Sample: Readout from the test compound
Vehicle: Readout from the vehicle sample
Background: Readout from the Erastin only treatment
Dose response curve is graphed by using the non-linear regression analysis (formula equation 201) in XLFit (Excel add-in software) for the average % remaining activity from triplicates, and the EC50 values is then calculated. In this anti-ferroptosis assay, ferrostatin-1, and XJB-5-131 are included as reference. The acceptance criteria were set based on historical result, mean±2.58*SD in logarithmic scale, meanwhile Z′>0.5.
(Cellular ATP, detected with luciferase, serves as a proxy for viable cell number.)
Take `CC(C)C[C@@H](/C=C/[C@H](Cc1ccccc1)C(=O)N1CCC[C@H]1C(=O)N[C@@H](CCCNC(=O)OCc1ccccc1)C(=O)OC1CC(C)(C)N(O)C(C)(C)C1)NC(=O)OC(C)(C)C` [Example XXXXI, (S)-1-hydroxy-2,2,6,6-tetramethylpiperidin-4-yl 2-((S)-1-((2S,5S,E)-2-benzyl-5-((tert-butoxycarbonyl)amino)-7-methyloct-3-enoyl)pyrrolidine-2-carboxamido)-5-(((benzyloxy)carbonyl)amino)pentanoate]: the concentration for a half-maximal effect (EC50) was 139 nM.
The same measure, in the same setting: under `CC(C)C[C@@H](/C=C/[C@H](Cc1ccccc1)C(=O)N1CCC[C@H]1C(=O)N[C@@H](CCCNC(=O)OC1CC(C)(C)N(O)C(C)(C)C1)C(=O)OC(C)C)NC(=O)OC(C)(C)C` [Example XXX, Propan-2-yl (2S)—2-{[(2S)-1-[(2S,3E,5S)-2-benzyl-5-{[(tert-butoxy)carbonyl]amino}-7-methyloct-3-enoyl]pyrrolidin-2-yl]formamido}-5-({[(1-hydroxy-2,2,6,6-tetramethylpiperidin-4-yl)oxy]carbonyl}amino)pentanoate] stands 46 nM.
Still for that read-out and setting: under `CC(C)C[C@@H](/C=C/[C@H](Cc1ccccc1)C(=O)N1CCC[C@H]1C(=O)N[C@@H](CCCNC(=O)OC1CC(C)(C)N(O)C(C)(C)C1)C(=O)NC(C)C)NC(=O)OC(C)(C)C` [Example XXXXV] stands 144 nM.

The assay is the same for the next values; noted with them: Homo sapiens, HT-1080, 30 h, HT-1080 cells, % remaining activity, read-out: EC50, Inhibition for Ferroptosis in HT-1080 Cell.
As to `CC(C)C[C@@H](/C=C/[C@H](Cc1ccccc1)C(=O)N1CCC[C@H]1C(=O)N[C@H](CCCCNC(=O)OC1CC(C)(C)N(O)C(C)(C)C1)C(=O)OC(C)C)NC(=O)OC(C)(C)C` [Example XXXIII, Propan-2-yl (2R)—2-{[(2S)-1-[(2S,3E,5S)-2-benzyl-5-{[(tert-butoxy)carbonyl]amino}-7-methyloct-3-enoyl]pyrrolidin-2-yl]formamido}-6-({[(1-oxyl-2,2,6,6-tetramethylpiperidin-4-yl)oxy]carbonyl}amino)hexanoate], the EC50 was found to be 291 nM.
The same measure, in the same setting: the result for `CC(C)C[C@@H](/C=C/[C@H](Cc1ccccc1)C(=O)N1CCC[C@@H]1C(=O)NC1CC(C)(C)N(O)C(C)(C)C1)NC(=O)OC(C)(C)C` [Example VI, tert-Butyl N-[(4S,5E,7S)-7-benzyl-8-[(2R)-2-[(1-hydroxy-2,2,6,6-tetramethylpiperidin-4-yl)carbamoyl]pyrrolidin-1-yl]-2-methyl-8-oxooct-5-en-4-yl]carbamate] reads 1020 nM.
On to `CC(C)C[C@@H](/C=C/[C@H](Cc1ccccc1)C(=O)N1CCC[C@H]1C(=O)N1CCC[C@H]1C(=O)N[C@@H](CCCNC(=O)OCc1ccccc1)C(=O)NC1CC(C)(C)N(O)C(C)(C)C1)NC(=O)OC(C)(C)C` [Example XI, Benzyl N-[(4S)-4-1-{[(2S)-1-[(2S)-1-[(2R,3E,5S)-2-benzyl-5-{[(tert-butoxy)carbonyl]amino}-7-methyloct-3-enoyl]pyrrolidine-2-carbonyl]pyrrolidin-2-yl]formamido}-4-[(1-hydroxy-2,2,6,6-tetramethylpiperidin-4-yl)carbamoyl]butyl]carbamate], for which the EC50 came out at 526 nM.
In the case of `CCN(CC)C(=O)[C@H](CCCNC(=O)OC1CC(C)(C)N(O)C(C)(C)C1)NC(=O)[C@@H]1CCCN1C(=O)[C@H](/C=C/[C@H](CC(C)C)NC(=O)OC(C)(C)C)Cc1ccccc1` [Example XXXV, tert-Butyl N-[(4S,5E,7S)-7-benzyl-8-[(2S)—2-{[(1S)-1-(diethylcarbamoyl)-4-({[(1-oxyl-2,2,6,6-tetramethylpiperidin-4-yl)oxy]carbonyl}amino)-butyl]carbamoyl}pyrrolidin-1-yl]-2-methyl-8-oxooct-5-en-4-yl]carbamate], the half-maximal effective concentration (EC50) came out at 192 nM.
On the same count and under the same terms, under `CC(C)C[C@@H](/C=C/[C@H](Cc1ccccc1)C(=O)N1CCC[C@H]1C(=O)N[C@H](C(=O)N[C@@H](CCCNC(=O)OCc1ccccc1)C(=O)NC1CC(C)(C)N(O)C(C)(C)C1)C(C)C)NC(=O)OC1CC(C)(C)N(O)C(C)(C)C1` [Example XXV, 1-Hydroxy-2,2,6,6-tetramethylpiperidin-4-yl N-[(4S,5E,7S)-7-benzyl-8-[(2S)—2-{[(1S)—1-{[(1S)—4-{[(benzyloxy)carbonyl]amino}-1-[(1-hydroxy-2,2,6,6-tetramethylpiperidin-4-yl)carbamoyl]butyl]carbamoyl}-2-methylpropyl]carbamoyl}pyrrolidin-1-yl]-2-methyl-8-oxooct-5-en-4-yl]carbamate dihydrochloride] stands 255 nM; under `CC(C)C[C@@H](/C=C/[C@H](Cc1ccccc1)C(=O)N1CCC[C@H]1C(=O)N[C@@H](CCCCNC(=O)C1CC(C)(C)N(O)C1(C)C)C(=O)OC(C)C)NC(=O)OC(C)(C)C` (stereo partly drawn) [Example XXXII, Propan-2-yl (2S)—2-{[(2S)-1-[(2S,3E,5S)-2-benzyl-5-{[(tert-butoxy)carbonyl]amino}-7-methyloct-3-enoyl]pyrrolidin-2-yl]formamido}-6-[(1-oxyl-2,2,5,5-tetramethylpyrrolidin-3-yl)formamido]-hexanoate], 573 nM.
Turning to `CC(C)C[C@@H](/C=C/[C@H](Cc1ccccc1)C(=O)N1CCC[C@H]1C(=O)N[C@@H](C)C(=O)N[C@@H](CCCNC(=O)OCc1ccccc1)C(=O)NC1CC(C)(C)N(O)C(C)(C)C1)NC(=O)OC(C)(C)C` [Example XIV, Benzyl N-[(4S)-4-[(2S)—2-{[(2S)-1-[(2S,3E,5S)-2-benzyl-5-{[(tert-butoxy)carbonyl]amino}-7-methyloct-3-enoyl]pyrrolidin-2-yl]formamido}propanamido]-4-[(1-hydroxy-2,2,6,6-tetramethylpiperidin-4-yl)carbamoyl]butyl]carbamate], the EC50 stood at 515 nM.
Consider `CC(C)C[C@@H](/C=C/[C@H](Cc1ccccc1)C(=O)N1CCC[C@@H]1C(=O)N[C@@H](CCCNC(=O)OCc1ccccc1)C(=O)NC1CC(C)(C)N(O)C(C)(C)C1)NC(=O)OC(C)(C)C` [Example XVII, Benzyl N-[(4S)—4-{[(2R)-1-[(2S,3E,5S)-2-benzyl-5-{[(tert-butoxy)carbonyl]amino}-7-methyloct-3-enoyl]pyrrolidin-2-yl]formamido}-4-[(1-hydroxy-2,2,6,6-tetramethylpiperidin-4-yl)carbamoyl]butyl]carbamate], for which the EC50 is 284 nM.
Same read-out and setting: under `CC(C)C[C@@H](/C=C/[C@H](Cc1ccccc1)C(=O)N1CCC[C@H]1C(=O)N[C@@H](CCCNC(=O)OCc1ccccc1)C(=O)OC1CC(C)(C)N(O)C(C)(C)C1)NC(=O)OC(C)(C)C` [Example XXXX, (S)-1-Oxyl-2,2,6,6-tetramethylpiperidin-4-yl 2-((S)-1-((2S,5S,E)-2-benzyl-5-((tert-butoxycarbonyl)amino)-7-methyloct-3-enoyl)pyrrolidine-2-carboxamido)-5-(((benzyloxy)carbonyl)amino)pentanoate] stands 140 nM.

Still in this assay, the particulars now being: Homo sapiens, HT-1080 cells, 30 hours, % remaining activity, read-out: EC50, Inhibition for Ferroptosis in HT-1080 Cell.
For the compound `CC(C)C[C@@H](/C=C/[C@H](Cc1ccccc1)C(=O)N1CCC[C@@H]1C(=O)N[C@@H](CCCNC(=O)OC(C)(C)C)C(=O)NC1CC(C)(C)N(O)C(C)(C)C1)NC(=O)OC(C)(C)C` [Example XXI, tert-Butyl N-[(4S,5E,7S)-7-benzyl-8-[(2R)—2-{[(1S)—4-{[(tert-butoxy)carbonyl]amino}-1-[(1-hydroxy-2,2,6,6-tetramethylpiperidin-4-yl)carbamoyl]butyl]carbamoyl}pyrrolidin-1-yl]-2-methyl-8-oxooct-5-en-4-yl]carbamate], the concentration giving a half-maximal response (EC50) is 257 nM.
As for `CC(C)C[C@H](N)/C=C/[C@H](Cc1ccccc1)C(=O)N1CCC[C@H]1C(=O)N[C@H](C(=O)N[C@@H](CCCNC(=O)OCc1ccccc1)C(=O)NC1CC(C)(C)N(O)C(C)(C)C1)C(C)C` [Example XV, Benzyl N-[(4S)-4-[(2S)—2-{[(2S)-1-[(2S,3E,5S)-5-amino-2-benzyl-7-methyloct-3-enoyl]pyrrolidin-2-yl]formamido}-3-methylbutanamido]-4-[(1-hydroxy-2,2,6,6-tetramethylpiperidin-4-yl)carbamoyl]butyl]carbamate trifluoroacetic acid salt], the EC50 was 2230 nM.
On the same count and under the same terms, the result for `CC(C)C[C@@H](/C=C/[C@H](Cc1ccccc1)C(=O)N1CCC[C@H]1C(=O)N[C@H](C(=O)N[C@@H](CCCNC(=O)OC1CC(C)(C)N(O)C(C)(C)C1)C(=O)NC(C)C)C(C)C)NC(=O)OC(C)(C)C` [Example XXXXVII, tert-Butyl N-[(4S,5E,7S)-7-benzyl-8-[(2S)—2-{[(1S)—1-{[(1S)-4-({[(1-oxyl-2,2,6,6-tetramethylpiperidin-4-yl)oxy]carbonyl}amino)-1-[(propan-2-yl)carbamoyl]butyl]carbamoyl}-2-methylpropyl]carbamoyl}pyrrolidin-1-yl]-2-methyl-8-oxooct-5-en-4-yl]carbamate] reads 143 nM.

The values are drawn from patent US10889572B2, “Reactive oxygen species scavengers and use for treating diseases” (XW LABORATORIES INC., priority 2017, dated 2021).
